{"source": "paper PMC6928345", "about": "“Detection and functional characterization of sigma class GST in Phlebotomus argentipes and its role in stress tolerance and DDT resistance” (Scientific Reports, 2019)", "molecules": {"B1": {"name": "rParg-GSTσ (sigma class GST of P. argentipes) (Phlebotomus argentipes) (protein)", "chain": "MPNYKVIYFNVKALAEPLRFLLAYGGIEFEDLRVSREEWPTLKSSMPMGQMPVLEVDGRRVHQSISMARYLAKQVGLVGADAWEDMQIDIVVDTISDFRLKIAVASYEPDDDVKEKKLVTLNNEVIPFYLEKLDVIARENKGHFALGKLTWADLYFAGIIDYLNYMTKTDLTEKYPNLKAVVDNVLAIESIKAWVEKRPVTEV", "notes": "PCR primers designed on P. papatasi GSTσ"}}, "key": {"[1]": {"target": "T1, rParg-GSTσ (sigma class GST of P. argentipes) (Phlebotomus argentipes, UniProt A0A5A4I953)", "T1 construct": "PCR primers designed on P. papatasi GSTσ", "T1 sequence (A0A5A4I953 1-203)": "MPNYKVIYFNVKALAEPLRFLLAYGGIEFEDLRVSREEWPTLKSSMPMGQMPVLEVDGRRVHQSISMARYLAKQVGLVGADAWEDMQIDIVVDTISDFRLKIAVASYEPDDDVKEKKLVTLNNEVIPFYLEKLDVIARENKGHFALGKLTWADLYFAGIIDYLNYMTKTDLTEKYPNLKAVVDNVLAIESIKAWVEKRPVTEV", "assay": "spectrophotometric GSH conjugation assay, […] nm", "type": "biochemical", "conditions": "1 mM GSH, CDNB 0.07–8 mM, sodium phosphate pH 6.5, room temperature"}, "[2]": {"target": "T1, rParg-GSTσ (sigma class GST of P. argentipes)", "assay": "inhibition of GST activity, residual activity", "type": "biochemical"}, "purified protein [3]": {"substrate": "CCCCCC(O)/C=C/C=O", "assay": "purified protein", "type": "biochemical, Phlebotomus argentipes", "conditions": "1 mM GSH, 4-HNE 10–100 µM, sodium phosphate buffer"}, "purified protein [4]": {"substrate": "CC(C)(OO)c1ccccc1", "assay": "purified protein", "type": "biochemical, Phlebotomus argentipes", "conditions": "1 mM GSH, 0.2 mM NADPH, 1 mM EDTA, cumene hydroperoxide 0.08–1.0 mM, sodium phosphate buffer"}}}
{"molecule": "O=[N+]([O-])c1ccc(Cl)c([N+](=O)[O-])c1", "note": "[CDNB]", "values": [{"measurement": "Km", "setting": "[1]", "result": 390, "unit": "µM"}]}
{"molecule": "C=C(CC)C(=O)c1ccc(OCC(=O)O)c(Cl)c1Cl", "note": "[Ethacrynic acid]", "values": [{"measurement": "IC50", "setting": "[2]", "result": 50, "unit": "nM"}]}
{"molecule": "B1", "values": [{"measurement": "Km", "setting": "purified protein [3]", "result": 5.02, "unit": "µM"}, {"measurement": "Km", "setting": "purified protein [4]", "result": 180, "unit": "µM"}]}
